From patent US9045472B2, “Imidazoquinoline compounds” (ASTRAZENECA AB, priority 2010, dated 2015)

Legend:
Human plasma stability = type: in vitro ADME; conditions: 37° C., 1 μM final incubation concentration, parent compound by LC-MS-MS
Method: (§1) To determine the half life of the test compound in human plasma, incubations were performed at 37° C. in a shaking water bath. Compound (5 μL of a 100 μM stock in MeCN) was spiked into 0.495 mL plasma to give a final incubation concentration of 1 μM. Aliquots (50 μL) were withdrawn at various time points (typically 0, 20 and 40 sec, 1, 2, 3, 5 and 10 mins) and quenched into MeCN (300 μL) followed by analysis for parent compound by LC-MS-MS (MRM mode). The half life was calculated from the decline of test compound peak area over time.

[1] = Cynomolgous monkey plasma stability; type: in vitro ADME; conditions: 37° C., 1 μM final incubation concentration, parent compound by LC-MS-MS
Method: Cynomolgous Monkey Plasma Stability
as §1, with “cynomolgous monkey” for “human”, “The test compound” for “Compound”, “time” for “time.”

human TLR7 = target: T1, human TLR7 (Homo sapiens, UniProt Q9NYK1); assay: Human TLR7 assay (SEAP reporter in HEK293 cells); type: cell-based; conditions: HEK293 cell line expressing recombinant human TLR7 and pNiFty2-SEAP reporter; overnight incubation at 37° C., 0.1% DMSO; read-out: mean pEC50 (concentration producing half of the maximal level of SEAP induction) (converted)
T1 construct: expressed in transfected cells; host or cells: HEK293 cell line stably expressing the pNiFty2-SEAP reporter plasmid; TLR7 in pUNO vector, blasticidin selection
T1 sequence (Q9NYK1 27-1049): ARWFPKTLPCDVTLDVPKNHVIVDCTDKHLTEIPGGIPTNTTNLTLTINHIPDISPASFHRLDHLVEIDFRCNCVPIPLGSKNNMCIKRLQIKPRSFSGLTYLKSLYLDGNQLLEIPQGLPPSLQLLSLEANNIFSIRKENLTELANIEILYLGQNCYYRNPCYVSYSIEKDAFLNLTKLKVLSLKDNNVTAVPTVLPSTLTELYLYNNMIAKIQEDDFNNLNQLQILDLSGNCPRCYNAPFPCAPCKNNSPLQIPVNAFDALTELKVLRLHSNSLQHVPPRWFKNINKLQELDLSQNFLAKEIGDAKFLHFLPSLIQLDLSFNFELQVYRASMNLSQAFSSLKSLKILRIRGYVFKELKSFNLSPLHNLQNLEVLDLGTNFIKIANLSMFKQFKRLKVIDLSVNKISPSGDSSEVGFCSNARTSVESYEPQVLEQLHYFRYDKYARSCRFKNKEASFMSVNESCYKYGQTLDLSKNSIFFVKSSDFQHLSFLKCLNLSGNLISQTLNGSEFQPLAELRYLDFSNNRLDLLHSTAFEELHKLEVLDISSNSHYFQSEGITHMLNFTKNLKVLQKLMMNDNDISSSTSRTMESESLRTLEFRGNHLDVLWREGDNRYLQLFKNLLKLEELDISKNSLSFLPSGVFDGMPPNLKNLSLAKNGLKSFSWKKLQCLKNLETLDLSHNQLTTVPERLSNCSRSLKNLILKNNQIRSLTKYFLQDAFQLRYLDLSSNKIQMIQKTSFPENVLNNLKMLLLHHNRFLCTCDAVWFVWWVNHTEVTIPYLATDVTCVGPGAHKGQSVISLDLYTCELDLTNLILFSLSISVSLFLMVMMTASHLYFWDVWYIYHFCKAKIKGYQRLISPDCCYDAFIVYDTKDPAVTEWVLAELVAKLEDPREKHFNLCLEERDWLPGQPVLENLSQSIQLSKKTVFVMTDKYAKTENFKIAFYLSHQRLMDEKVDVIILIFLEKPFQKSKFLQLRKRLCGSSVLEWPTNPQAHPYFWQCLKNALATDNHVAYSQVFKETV
Text: Recombinant human TLR7 was stably expressed in a HEK293 cell line already stably expressing the pNiFty2-SEAP reporter plasmid; integration of the reporter gene was maintained by selection with the antibiotic zeocin. The most common variant sequence of human TLR7 (represented by the EMBL sequence AF240467) was cloned into the mammalian cell expression vector pUNO and transfected into this reporter cell-line. Transfectants with stable expression were selected using the antibiotic blasticidin. In this reporter cell-line, expression of secreted alkaline phosphatase (SEAP) was controlled by an NFkB/ELAM-1 composite promoter comprising five NFkB sites combined with the proximal ELAM-1 promoter. TLR signaling leads to the translocation of NFkB and activation of the promoter results in expression of the SEAP gene. TLR7-specific activation was assessed by determining the level of SEAP produced following overnight incubation of the cells at 37° C. with the test compound prepared above in the presence of 0.1% (v/v) dimethylsulfoxide (DMSO). Concentration dependent induction of SEAP production by compounds was expressed as the concentration of compound which produced half of the maximal level of SEAP induction for that compound (pEC50).

[2] = Gravimetric Vapour Sorption (GVS); type: physicochemical
Method: Gravimetric Vapour Sorption (GVS) profiles were measured using a TA Instruments Q5000SA instrument. Approximately 1 mg to 5 mg of the solid sample was placed into a metal vessel, and the weight of the sample was recorded during a dual cycle step method (40 to 90 to 0 to 90 to 0% relative humidity (RH), in steps of 10% RH).

Row | SMILES | half-life at 1 μM (Human plasma stability) [s] | half-life at 1 μM [1] [s] | EC50 (human TLR7) [nM] | mass increase at 80% relative humidity, cycle 1 ([2]; cycle 1) [%] | mass increase at 80% relative humidity, cycle 2 ([2]; cycle 2) [%]
1 | CCOCc1nc2c(N)nc3ccccc3c2n1CCCN(Cc1cccc(CC(=O)OC)c1)C(=O)CN(C)C [Comparative Example 1, Methyl 2-(3-((N-(3-(4-amino-2-(ethoxymethyl)-1H-imidazo[4,5-c]quinolin-yl)propyl)-2-(dimethylamino)acetamido)methyl)phenyl)acetate, reference compound] | 42 | 660 |  |  | 
2 | CCOCc1nc2c(N)nc3ccccc3c2n1CCCCN(Cc1cccc(CC(=O)OC)c1)C(=O)CN(CC)CC [Compound (I), Methyl (3-{[{4-[4-amino-2-(ethoxymethyl)-1H-imidazo[4,5-c]quinolin-1-yl]butyl}(N,N-diethylglycyl)amino]methyl}phenyl)acetate] | 18 | 72 | 39.8 | 0.5 | 0.64
